The results in this text go back to patent US20240148821A1, “PHARMACEUTICAL USE OF CYCLIC PEPTIDE COMPOUND” (CHUGAI SEIYAKU KABUSHIKI KAISHA, priority 2021, published 2024).

The target of assay [1] is protein-protein interaction between Kras and SOS1 (biotin-tagged human Kras loaded with GDP, His-tagged human SOS1) (Homo sapiens (Human), UniProt P01116, G12D). Put plainly: Protein-protein interaction inhibition between Kras and SOS1 (KrasG12D-SOS PPI) using AlphaScreen.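 Also: kras produced in E. coli, Ni-coupled donor beads and streptavidin acceptor beads, excitation 680 nm with emission detected at 520–620 nm via singlet oxygen transfer.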 The class given is biochemical. The following applies: AlphaScreen; biotin-tagged human Kras loaded with GDP, His-tagged human SOS1; read-out: KRAS G12D-SOS PPI IC50.

The subject of assay [2] is various cancer cell lines (Ras mutation or amplification). Kind of assay: Measurement of cell growth inhibitory activity against various cancer cell lines (CellTiter-Glo). The class given is cell-based, human. In general terms: Cellular ATP, detected with luciferase, serves as a proxy for viable cell number.
Procedure: Various cancer cell lines used were purchased from commercial suppliers. […] The cell suspension and culture medium supplemented with serum were dispensed to a plate containing the test compounds at 40 μL (384 well plate) or 200 μL (96 well plate) per well and incubated in a carbon dioxide gas incubator. […] Six days or seven days after the start of cultivation, 20 μL of CellTiter-Glo (Promega) was added to each well and fluorescence was measured.
Assay [3] relates to A549 (NSCLC). Put plainly: In vivo antitumor activity, mouse xenograft model, A549. The following applies: 10 days. The source says: (§1) Tumor growth inhibition rate (TGI %)=(1−TV/CV)×100
Assay [4] concerns Human pancreatic cancer cell line AsPC-1 (G12D mutation Kras). Put plainly: AsPC-1 cell growth inhibition (AsPC-1 CGI). The class given is cell-based. The following applies: read-out: AsPC-1 cell growth inhibition, 50% growth inhibitory concentration (IC50 value); 96 hours, CellTiter-Glo, values classified in ranges.
Procedure: Test compounds were serially dilated with dimethyl sulfoxide, and 200 nL was then dispensed to a U-bottom 96-well plate using Labcyte Echo. […] The cell suspension was dispensed to a. plate containing a test compound at 100 μL per well and incubated at 37° C. in a 5% carbon dioxide gas incubator. 96 hours later, 80 μL of CellTiter-Glo (Promega) was added to each well and fluorescence was measured.
Assay [5] relates to large bowel carcinoma cell line LS 180. Put plainly: In vivo antitumor activity, mouse xenograft model, LS 180. The following applies: LS 180 (Colon) xenograft, 7 days.
Excerpt: as §1

[6] abbreviates: A4/Fuk, Non-Hodgkin lymphoma, KRAS Amp.
[7] abbreviates: MIA PaCa-2, Pancreas, KRAS G12C.

Bridge positions count the residues as written; N and C are the ends. Square brackets hold non-standard residues; d marks the D form. Peptide text beside a SMILES is read from it. * marks the point of attachment. hPhe(3-Cl-4-CF3) = N[C@@H](CCc1ccc(C(F)(F)F)c(Cl)c1)C(=O)O; NMeGly(cPent) = CN[C@H](C(=O)O)C1CCCC1; NMeCha = CN[C@@H](CC1CCCCC1)C(=O)O; NMeChg = CN[C@H](C(=O)O)C1CCCCC1; NMeD = CN[C@@H](CC(=O)O)C(=O)O; NMeL = CN[C@@H](CC(C)C)C(=O)O; Morpholide = C1CN(*)CCO1; NMeA = CN[C@@H](C)C(=O)O; Piperidide = C1CCN(*)CC1; Ac5c = NC1(C(=O)O)CCCC1; Aze = O=C(O)[C@@H]1CCN1; Sar = CNCC(=O)O Bounds are passed on as bounds.

On to `CC[C@H](C)[C@@H]1NC(=O)[C@H](CC(C)C)N(C)C(=O)C[C@@H](C(=O)N2CCCCC2)N(C)C(=O)[C@H](C2CCCCC2)N(C)C(=O)C2(CCCC2)NC(=O)[C@@H]2CCCN2C(=O)[C@H](CCc2ccc(C(F)(F)F)c(Cl)c2)NC(=O)CN(C)C(=O)[C@H](CC2CCCCC2)N(C)C(=O)CN(C)C(=O)CN(C)C1=O` [Compound 558, (3S,9S,18S,21S,25S,28S,34S)-3-[2-[3-chloro-4-(trifluoromethyl)phenyl]ethyl]-28-cyclohexyl-9-(cyclohexylmethyl)-21-isobutyl-7,10,13,16,22,26,29-heptamethyl-18-[(1S)-1-methylpropyl]-25-(piperidine-1-carbonyl)spiro[1,4,7,10,13,16,19,22,26,29,32-undecazabicyclo[32.3.0]heptatriacontane-31,1′-cyclopentane]-2,5,8,11,14,17,20,23,27,30,33-undecone] ([NMeL]I[Sar][Sar][NMeCha][Sar][hPhe(3-Cl-4-CF3)]P[Ac5c][NMeChg][NMeD]-Piperidide; lactam N-11), for which the IC50 in assay [1] is 1.8 nM; in assay [2] (setting [6]) it was 5.83 nM; in assay [2] (A549, NSCLC, KRAS G12S) it was 7.98 nM; in assay [2] (KURAMOCHI, Ovary, KRAS Amp) it was 23.4 nM; in assay [2] (LS 180, Colon, KRAS G12D), 22.6 nM; in assay [2] (setting [7]), 18.7 nM. Besides, the IC50 worked out at 31.6 nM in assay [2] (NCI-H441, NSCLC, KRAS G12V); 55.7 nM in assay [2] (NCI-H929, Myeloma, NRAS G13D); 29.8 nM in assay [2] (SNU-1, Stomach, KRAS G12D); 17.5 nM in assay [2] (SW480, Colon, KRAS G12V). In addition, the “TGI (%)” value was 46% in assay [3] (10 mg/kg once daily), 57% in assay [3] (15 mg/kg once daily) and 106% in assay [3] (30 mg/kg once daily).

For the compound `CC[C@H](C)[C@@H]1NC(=O)[C@H](CC(C)C)N(C)C(=O)C[C@@H](C(=O)N2CCOCC2)N(C)C(=O)[C@H](C2CCCC2)N(C)C(=O)C2(CCCC2)NC(=O)[C@@H]2CCCN2C(=O)[C@H](CCc2ccc(C(F)(F)F)c(Cl)c2)NC(=O)CN(C)C(=O)[C@H](CC2CCCCC2)N(C)C(=O)[C@@H]2CCN2C(=O)[C@H](C)N(C)C1=O` [Compound 926, (5S,8S,11S,15S,18S,23aS,29S,35S,37aS)-8-((S)-sec-butyl)-29-(3-chloro-4-(trifluoromethyl)phenethyl)-35-(cyclohexylmethyl)-18-cyclopentyl-11-isobutyl-5,6,12,16,19,33,36-heptamethyl-15-(morpholine-4-carbonyl)docosahydro-2H,4H-spiro[azeto[2,1-u]pyrrolo[2,1-i][1,4,7,10,13,16,19,22,25,28,31]undecaazacyclotetratriacontine-21,1′-cyclopentan]-4,7,10,13,17,20,23,28,31,34,37(14H,22H)-undecaone] ([NMeL]I[NMeA][Aze][NMeCha][Sar][hPhe(3-Cl-4-CF3)]P[Ac5c][NMeGly(cPent)][NMeD]-Morpholide; lactam N-11), the IC50 in assay [1] was found to be 0.99 nM; in assay [2] (setting [6]) it was 1.28 nM; in assay [2] (A549, NSCLC, KRAS G12S), 1.09 nM; in assay [2] (AGS, Stomach, KRAS G12D) it was 1.46 nM; in assay [2] (AsPC-1, Pancreas, KRAS G12D) it was 3.33 nM; in assay [2] (KURAMOCHI, Ovary, KRAS Amp) it was 7.89 nM. For the same compound, the IC50 in assay [2] (LS 180, Colon, KRAS G12D) was 5.39 nM; in assay [2] (setting [7]), 8.93 nM; in assay [2] (NCI-H441, NSCLC, KRAS G12V), 2.87 nM; in assay [2] (NCI-H929, Myeloma, NRAS G13D) it was 18.8 nM; in assay [2] (NOMO-1, AML, KRAS G13D), 29.1 nM; in assay [2] (SNU-1, Stomach, KRAS G12D), 2.74 nM. Also, the IC50 in assay [2] (SW480, Colon, KRAS G12V) was 56.7 nM; in assay [4], not above 20 nM. Moreover, the figures for the “TGI (%)” value in assay [5] (15 mg/kg once daily) and in assay [5] (30 mg/kg once daily) were 29% and 75%, respectively.
